{"source": "patent US7569221B2", "about": "“Compositions and methods for identifying agents that alter expression of survivin” (Health Research, Inc., priority 2006, dated 2009)", "key": {"human survivin promoter [1]": {"test_system": "human survivin promoter", "test": "in vivo luciferase imaging of SPlucTg mice during liver injury and regeneration after CCl4", "set-up": "species or system mouse", "protocol": "FIG. 20 is a photographic representation (obtained using the XENOGEN IVIS® in vivo Imaging System) of dose-dependent transient turn-on of survivin promoter activity during SPlucTg mouse liver injury and regeneration using carbon tetrachloride (CCl4): A 10% of CCl4 solution formulated in corn oil was prepared. The following dose was injected intraperitoneally on Day 0: 50 μl/25 g (panel A), 100 μl/25 g (panel B), 200 μl/25 g (panel C) and 300 μl/25 g (panel D). The in vivo imaging was monitored on Day 1 (24 h), Day 2 (48 h), Day 3 (72 h), Day 4 (96 h) and Day 6 (144 h) after administration of CCl4 (arrows indicate luciferase expression). […]\n(§1) Using a survivin-specific monoclonal antibody termed 12C4, we have recently shown that testis is the only human organ that highly expresses survivin (60-70% of spermatogonia) (19). Consistent with this observation, luciferase activity in SPlucTg mice was detected only in the testis of male mice but not in female mice (founder, F1 and F2). […]\nBased on this observation, we tested whether we could observe luciferase activity during mouse liver regeneration after injury. […] Importantly, the mouse liver injury and luciferase activity monitored by in vivo imaging is CCl4 dose-dependent, which provides a novel basis for testing compound-induced tissue injury/toxicity."}, "human survivin promoter [2]": {"test_system": "human survivin promoter", "test": "luciferase activity assay in cancer cell clones stably transfected with pNeoHScyc4.08-luc", "assay_type": "cell-based", "protocol": "Methods for transfection, G418 selection, single clone isolation and amplification: Cells were first tested for G418 resistance with a series of G418 concentrations. For transfection, cells were seeded in a 6-well cell culture plate, one day before transfection, to a cell concentration in which cell would grow into 40-70% confluence on the second day for transfection. Cells were transfected with the Sal I-linearized pNeoHScyc4.08-luc or pNeoHS4.04-luc using LIPOFECTAMINE™ 2000 (INVITROGEN). Briefly, 1-2 μg (dependent on cell transfection efficiency) of the linearized plasmid DNA in 100 μl serum-free DMEM were mixed with 1.5-3 μl Lipofectamine™ 2000 in 100 μl serum-free DMEM in a 1.5-ml tube for each well of 6-well plates. After incubation at room temperature for 20-25 minutes, the DNA/Lipofectamine™ 2000 mixture was added to each well containing 500 μl serum-free DMEM medium in the 6-well plate. […]\nMethods for measuring luciferase activity and isolation of the correct cell clones: For luciferase assays, the Luciferase Reporter Assay System (PROMEGA) was used. […] Luciferase activity for each cell clones was determined every 4-5 sub-culture/passing. […]\nTherefore, we used Hedamycin as a positive control to test our genetically modified cancer cell models. […] After cells were treated with 10 nM hedamycin for 16-24 hours, cells were lysed and luciferase activity was measured as described above. […]"}, "cancer cells": {"test_system": "cancer cells", "test": "cell death of treated cancer cells", "assay_type": "cell-based"}, "survivin [3]": {"test_system": "survivin", "test": "survivin expression and survivin promoter activity in cancer cells (earlier work)", "assay_type": "cell-based, human", "settings": "binds to the survivin promoter"}, "survivin [4]": {"test_system": "survivin", "settings": "cancer cells; reference 15; cited from earlier work"}, "human survivin promoter [5]": {"test_system": "human survivin promoter", "test": "in vivo luciferase imaging of castrated SPlucTg male mice after androgen treatment", "set-up": "species or system mouse", "settings": "testosterone pills imbedded 14 days after castration, seen on Day 11 and Day 14 post pill", "source_text": "FIG. 19 is a photographic representation (obtained using the XENOGEN IVIS® in vivo Imaging System) of transient turn-on of survivin promoter activity by imbedding testosterone pills in castrated SPlucTg mice: Testosterone pills were imbedded in the back of the neck of SPlucTg mice (an example shown here is the F1 5556m derived from 5196m founder) 14 days after castration (prostate tissue shrinking to the minimal size by apoptosis in the 14 days). After testosterone pill implantation, luciferase activity was monitored using in vivo imaging.\nGeneration of SPlucTg mice: The targeting construct, pHScyc4.08-luc, was digested with Sal I and Sac I to isolate the 8.5 kb transgene cassette (HScyc4.08-luc) from the bacterial plasmid backbone (see FIG. 2). […] Cesium chloride-purified HScyc4.08-luc DNA was microinjected into the pronuclei of day-0.5 embryos of C57BL/6 mice. Injected embryos were implanted into the oviducts of pseudo-pregnant female Swiss Webster mice. […]\nas §1"}}}
{"smiles": "ClC(Cl)(Cl)Cl", "note": "[CCl4, carbon tetrachloride]", "values": [{"measurement": "dose dependence of mouse liver injury and luciferase activity", "setting": "human survivin promoter [1]; intraperitoneal CCl4, 50, 100, 200, 300 μl/25 g", "result": "dose-dependent"}, {"measurement": "luciferase activity during liver regeneration by in vivo imaging", "setting": "human survivin promoter [1]; intraperitoneal injection of 10% CCl4 in corn oil, 50-300 μl/25 g, Day 1-6", "result": "strong luciferase activity"}]}
{"smiles": "CCOc1ccc(-c2nc3ccc(-c4nc5ccc(N6CCN(C)CC6)cc5[nH]4)cc3[nH]2)cc1", "note": "[Hoechst33342]", "values": [{"measurement": "survivin promoter/luciferase activity", "setting": "human survivin promoter [2]; 500 nM Hoechst33342 for 16-24 hours, A549, 2008, HCT116, PC-3 clones with pNeoHScyc4.08-luc (FIGS. 9-12)", "result": "upregulates survivin promoter/luciferase activity"}, {"measurement": "cell death", "setting": "cancer cells; 500 nM for 16-24 hours", "result": "does not result in significant cell death"}, {"measurement": "survivin promoter activity and endogenous survivin gene expression", "setting": "survivin [3]", "result": "upregulates the survivin promoter activity and endogenous survivin gene expression"}]}
{"smiles": "Cc1cc2c(c3oc(C4(C)OC4C4OC4C)cc(=O)c13)C(=O)c1c(O)c(C3CC(C)(N(C)C)C(O)C(C)O3)cc(C3CC(N(C)C)C(O)C(C)O3)c1C2=O", "note": "(stereo not shown) [hedamycin]", "values": [{"measurement": "luciferase activity", "setting": "human survivin promoter [2]; 10 nM hedamycin for 16-24 hours, A549, 2008, HCT116, PC-3 clones with pNeoHScyc4.08-luc (FIGS. 5-8)", "result": "significantly inhibited"}, {"measurement": "cell death", "setting": "cancer cells; 10 nM for 16-24 hours", "result": "do not show significant cell death"}, {"measurement": "survivin expression and survivin promoter activity", "setting": "survivin [4]", "result": "inhibits survivin expression and downregulates survivin promoter activity"}]}
{"smiles": "C[C@]12CC[C@H]3[C@@H](CCC4=CC(=O)CC[C@@]43C)[C@@H]1CC[C@@H]2O", "note": "[testosterone]", "values": [{"measurement": "luciferase activity (survivin promoter activity) by in vivo imaging", "setting": "human survivin promoter [5]", "result": "Transient induction of survivin promoter activity"}, {"measurement": "luciferase activity (survivin promoter activity) by in vivo imaging", "setting": "human survivin promoter [5]; listed as androgen", "result": "transient luciferase activity"}]}
